The source of these data is US5744621A, “Irreversible HIV protease inhibitors, intermediates, compositions and processes for the preparation thereof” (Lucky Limited., priority 1992, dated 1998).

For one data set, the system named is HIV-1. Put plainly: Anti-viral activity: syncytium formation (Sup T1) or reverse transcriptase assay (H9). Type of data set: cell-based. The conditions noted are these: Human immunodeficiency virus 1, SUP-T1. The method, then:
The anti-viral activity of the compounds of the present invention was determined by measuring the concentration of the compounds that inhibits the proliferation of HIV by 50%(IC50) through a survey for syncytium formation or reverse transcriptase assay.
1×10^5 cells of each of H9(ATCC HTB 176) and Sup T1 cell lines were added to the wells of a 24-well microtiter plate and various concentrations so the compounds of the present invention were added thereto. 200 TCID50 (200-fold of 50% tissue culture infection dose) of HIV-1 inoculum and rpmi-1640 medium(Sigma Chemical Co., U.S.A) were added successively to the wells and the plate was incubated at 37° C. In case of Sup T1, the number of syncytium formed was investigated after 3 to 9 days. IC50 of each compound was determined by measuring the concentration of inhibitor that can reduce the number of syncytium by 50% compared with those formed in the same condition without the inhibitor.
In case of H9, three-quarters(3/4) of the culture medium in volume was refreshed every 3 days; and 6 ml of the culture fluid was centrifuged at 1000 rpm for 10 minutes. To 5 ml of the resulting supernatant were added 2.5 ml of 30% polyethyleneglycol(PEG, M.W. 6000-8000) and 0.4M NaCl. The resulting solution was allowed to stand at 0° C. overnight to precipitate virus particles. The solution was centrifuged at 2000 rpm for 45 minutes, the supernatant was discarded therefrom and the precipitate was diluted with 20 μl of a reverse transcriptase suspension buffer(50 mM tris-HCl, pH 7.5, 1 mM dithiothreitol, 20% glycerol, 0.25M KCl and 0.25% Triton X-100). The resulting suspension was stored in an Effendorf tube at -70° C. until used. A procedure of freezing said virus suspension for 2 minutes in dry ice and thawing same at 37° C. for 2 minutes was repeated three times and the resulting suspension was centrifuged at 4° C. The resulting supernatant was used in carrying out the reverse transcriptase assay.
10 μl of the said viral suspension was added to a solution of: 10 μl of buffer solution(250 mM tris-HCl, pH 7.5, 37.5 mM MgCl2, 0.25% triton X-100), 1.2 μl of 200 mM dithiothreitol, 5 μl of 10 μM oligo(dT)-poly(A)(Boeringer Manheim, 12-18 oligomer), 1 μl(1 μCi) of ^3 H-TTP(Thymidinetri-phosphate) and 23.6 μl of water; and the resulting mixture was placed at 37° C. After 1 hour, the mixture was poured onto a WHATMAN DEB1 filter and the filter was washed three times with 5 ml of 2×SSC buffer solution(17.53 g of sodium chloride, 8.82 g of sodium citrate, pH 7.0, 1 liter of water) for about 10 minutes each time and twice with 95% ethanol for 10 seconds. The filter was put onto aluminium foil and dried with an infra-red lamp. The amount of radioactivity was counted using a liquid scintillation counter. IC50 of each compound was determined by measuring the concentration of inhibitor that can reduce the activity of reverse transcriptase by 50%.

The target of the next data set is T1, HIV-1 protease (Human immunodeficiency virus type 1 group M subtype B, UniProt P04585).
T1 construct: 2.6 nM of HIV-1 protease
Kind of data set: Assay for inhibitory effect on HIV protease (residual enzyme activity, HPLC of substrate cleavage). It counts as biochemical. The conditions noted are these: pH 5.5; for Ki / kinact: HIV-1 protease 2.6 nM; for Ki: inhibition constant; for kinact: rate constant of covalent bond formation, read-out: kina (converted); for kinact/KI: second order rate constant, HIV-1 protease, read-out: kina /KI (converted). The method, then: The inhibitory effect on HIV protease of the compounds of the present invention was determined by the following method.
To a buffer solution comprising 50 mM sodium acetate, pH 5.5, 1 mM dithiothreitol(DTT), 1 mM ethylenediaminetetraacetate (EDTA), 0.75M ammonium sulfate, 0.2M sodium chloride and 0.1% NP40(NONIDET P-40; Sigma Chemical Co., U.S.A.), were added various concentrations of a compound selected from Compound Nos. 1 to 92 to prepare a preincubation solution. Inhibition reaction was started with the addition of 2.6 nM of HIV-1 protease to the preincubation solution. Each 10 μl of the reaction solution was taken at a given time interval and added to 80 μl of assay solution containing 100 μM of reaction substrate in the same buffer solution as above to assay for the residual enzyme activity. In this context, an oligopeptide(KM =20 μM) consisting of 11 amino acids, i.e., Ser-Ile-Ala-Glu-(p-NO2)-Phe-Leu-Val-Arg-Ala-Lys-His, was used as a reaction substrate, which oligopeptide was to be cleaved in two by the breakage of amide bond between (P--NO2)-Phe and Leu upon the attack of HIV protease. The reaction rate was determined by subjecting the substrate before the reaction and the product after the reaction to HPLC separation and then measuring the relative amount of the product, using the strong absorbance of (p--NO2)-Phe at 280 nm. The amount of reduction in enzyme activity according to the elapsed time were measured and the natural logarithmic values(ln) of the measured amounts were plotted against time to obtain a linear graph and kobs was calculated from the slope of the linear graph.
The inhibition constant was calculated according to the following equation: [formula] wherein: kobs is a rate constant indicating the rate of reduction in enzyme activity according to the elapsed time under the presence of a given concentration of inhibitor,
kina is a rate constant indicating the rate of chemical reaction forming covalent bond between an enzyme and an inhibitor in Michaelis-Menten complex,
KI is an inhibition constant indicating the dissociation rate of Michaelis-Menten complex into an enzyme and an inhibitor, and
[I] means the inhibitor concentration.
The above equation is applicable to an experiment carried out under the condition in which the concentration of inhibitor is far higher than that of enzyme(Steady State Kinetic). […] The inhibition constants KI and kina and second order rate constant kina /KI were obtained by inputting the value of [E]/([E]+[EI]+[EI']) into KINSIM/FITSIM program. FIG. 1 exemplifies a result of the experiment determining the binding ratio of enzymes and inhibitors, which result was obtained by reacting the enzyme and the inhibitor in various concentration ratios for a sufficient time period(at least for 30 minutes), and then plotting the relative activity of the remaining enzyme against [conc. of inhibitor]/[conc. of enzyme].

Data set [1] is described as follows: Cytotoxicity in H9 or Sup T1 cells (trypan blue dye exclusion). Type of data set: cell-based. The conditions noted are these: human; concentration that causes death of cells by 50%; H9 or Sup T1 cells, 37° C; read-out: CT50 (the source's name). The method, then: To determine the cytotoxicity of the compounds of the present invention, 0.1 μM to 100 μM of the novel compounds were added to H9 cell or Sup T1 cell and the mixture was cultured on a rpmi-1640 medium at 37° C. The medium was refreshed every 3 days and the extent of cell proliferation was observed using Hemacytometer according to the trypan blue dye exclusion technique which is well known in the art. CT50 (i.e., concentration that causes death of cells by 50%) was determined. For reference, AZT(Burrows-Wellcome), A-75925 (Abbott, C2 symmetric compound) and Ro-31-8959(F. Hofmann-La Roche) were used as control compounds.

A word on the IC50: it is the point on the concentration scale where inhibition reaches its midpoint. A lower IC50 goes with higher potency. One may read the Ki as the equilibrium dissociation constant of an inhibitor or competing ligand from its target. Low readings indicate higher affinity, high ones lower affinity. `CC[C@H](C)[C@H](NC(=O)C[C@@H]1O[C@@H]1[C@H](Cc1ccccc1)NC(=O)[C@H](CC(N)=O)NC(=O)c1ccc2ccccc2n1)C(=O)NC` [compound 25, N-{5-L-[[N-(2-quinolinecarbonyl)-L-asparaginyl]amino]-(4R,3S)-epoxy-6-phenylhexanoyl}-L-isoleucinyl-methylamide] returned an IC50 with HIV-1 of 500 nM. On HIV-1 protease, the inhibitory constant (Ki) came to 20 nM, the kinact was 0.003 s⁻¹ and the kinact/KI is 150000 M⁻¹ s⁻¹. Further, the CC50 in data set [1] is over 100000 nM.
In the data set on HIV-1, `CC[C@H](C)[C@H](NC(=O)C[C@@H]1O[C@@H]1[C@H](Cc1ccccc1)NC(=O)[C@H](CC(N)=O)NC(=O)c1ccc2ccccc2n1)C(=O)N(C)C` [compound 26] showed an IC50 of 500 nM. At HIV-1 protease, the Ki is over 10000 nM. Besides, in data set [1], the CC50 was over 100000 nM.
The molecule `CC[C@H](C)[C@H](NC(=O)C[C@@H]1O[C@@H]1[C@H](Cc1ccccc1)NC(=O)[C@H](CC(N)=O)NC(=O)c1ccc2ccccc2n1)C(N)=O` [compound 27, N-{5-L-[[N-(2-quinolinecarbonyl)-L-asparaginyl]amino]-(4R,3S)-epoxy-6-phenylhexanoyl}-L-isoleucinyl amide] had an IC50 in the data set with HIV-1 of 1000 nM. For the same molecule, at HIV-1 protease, affinity was put at a Ki of 3 nM, the kinact was 0.00333 s⁻¹ and the kinact/KI is 1.12e+06 M⁻¹ s⁻¹. The CC50 in data set [1] is about 10000 nM.
In the data set with HIV-1, `CC[C@H](C)[C@H](NC(=O)C[C@@H]1O[C@@H]1[C@H](Cc1ccccc1)NC(=O)[C@H](CC(N)=O)NC(=O)c1ccc2ccccc2n1)C(=O)NOC` [compound 28, N-{5-L-[[N-(2-quinolinecarbonyl)-L-asparaginyl]amino]-(4R,3S)-epoxy-6-phenylhexanoyl}-L-isoleucinyl-(N-methoxy)-amine] showed an IC50 of 600 nM. In addition, at HIV-1 protease, the Ki was 15 nM, the kinact is 0.00333 s⁻¹ and the kinact/KI was 217000 M⁻¹ s⁻¹. The CC50 in data set [1] is over 100000 nM.
Taken in the same sequence, the figures for `CC(C)[C@H](NC(=O)C[C@@H]1O[C@@H]1[C@H](Cc1ccccc1)NC(=O)[C@H](CC(N)=O)NC(=O)c1ccc2ccccc2n1)C(N)=O` [compound 32] were 500 nM, 5 nM, 0.00367 s⁻¹, 733000 M⁻¹ s⁻¹ and over 100000 nM.
Consider `CC[C@H](C)[C@H](NC(=O)C[C@@H]1O[C@@H]1[C@H](Cc1ccccc1)NC(=O)[C@@H](NC(=O)N(C)Cc1ccccn1)C(C)C)C(=O)OC` [compound 35, N-{N-L-[[N,N-(2-pyridylmethyl)(methyl)-amino]carbonylvalinyl]amino-(4R,3S)-epoxy-6-phenyl-hexanoyl}-L-isoleucine methyl ester], for which, in the data set with HIV-1, half-maximal inhibition (IC50) required 1000 nM. This molecule displayed a Ki on HIV-1 protease of over 10000 nM. For the same molecule, the CC50 in data set [1] was over 100000 nM.
`CC[C@H](C)[C@H](NC(=O)C[C@@H]1O[C@@H]1[C@H](CC1CCCCC1)NC(=O)[C@@H](NC(=O)N(C)Cc1ccccn1)C(C)C)C(=O)OC` [compound 39, N-{5-L-[[N,N-(2-pyridylmethyl)(methyl)-amino]carbonylvalinyl]amino-(4R, R3S)-epoxy-6-(cyclohexylmethyl)-hexanoyl}-L-isoleucine methyl ester] had an IC50 with HIV-1 of 1000 nM. This molecule also gave a Ki on HIV-1 protease of over 10000 nM. Moreover, the CC50 in data set [1] is over 100000 nM.
In turn, `CC[C@H](C)[C@H](NC(=O)C[C@@H]1O[C@@H]1[C@H](Cc1ccccc1)NC(=O)[C@H](CC(N)=O)NC(=O)c1ccc2ccccc2n1)C(=O)NO` [compound 40] showed an IC50 with HIV-1 of 700 nM. At HIV-1 protease, the Ki amounted to 33 nM, the kinact was 0.00417 s⁻¹ and the kinact/KI is 1270 M⁻¹ s⁻¹. In data set [1], the CC50 was over 100000 nM.
Regarding `CC(C)[C@H](Cc1ccccc1)NC(=O)C[C@@H]1O[C@@H]1[C@H](Cc1ccccc1)NC(=O)[C@H](CC(N)=O)NC(=O)c1ccc2ccccc2n1` [compound 42, [[(5S)-[N-(2-quinolinecarbonyl)-L-asparaginyl]amino]-(4R,3S)-epoxy-6-phenyl-1-hexanoyl]-[(2S)-[1-phenyl-3-methyl]butyl]amide], in the data set on HIV-1, half-maximal inhibition (IC50) was put at 20 nM. On HIV-1 protease, the Ki worked out at 0.8 nM, the kinact was 0.0433 s⁻¹ and the kinact/KI was 5.5e+07 M⁻¹ s⁻¹. In data set [1], the CC50 is over 100000 nM.
Take `CC(C)[C@@H](NC(=O)C[C@@H]1O[C@@H]1[C@H](Cc1ccccc1)NC(=O)[C@H](CC(N)=O)NC(=O)c1ccc2ccccc2n1)c1ccccc1` [compound 43]: the IC50 with HIV-1 was found to be 50 nM. For the same molecule, on HIV-1 protease, the Ki was found to be 3.2 nM, the kinact is 0.0283 s⁻¹ and the kinact/KI was 88300 M⁻¹ s⁻¹. For the same molecule, the CC50 in data set [1] is over 100000 nM.
In the data set on HIV-1, `CC(C)[C@H](CCc1ccccc1)NC(=O)C[C@@H]1O[C@@H]1[C@H](Cc1ccccc1)NC(=O)[C@H](CC(N)=O)NC(=O)c1ccc2ccccc2n1` [compound 44] yielded an IC50 of 300 nM. Also, on HIV-1 protease, the affinity, expressed as Ki, was 11 nM; the kinact is 0.0417 s⁻¹; the kinact/KI is 3.83e+06 M⁻¹ s⁻¹. In addition, in data set [1], the CC50 is over 100000 nM.
The corresponding values for `CC(C)[C@H](CCCc1ccccc1)NC(=O)C[C@@H]1O[C@@H]1[C@H](Cc1ccccc1)NC(=O)[C@H](CC(N)=O)NC(=O)c1ccc2ccccc2n1` [compound 45] are 200 nM, 1.2 nM, 0.04 s⁻¹, 3.33e+07 M⁻¹ s⁻¹ and over 100000 nM.
Take `CC(C)C(NC(=O)C[C@@H]1O[C@@H]1[C@H](Cc1ccccc1)NC(=O)[C@H](CC(N)=O)NC(=O)c1ccc2ccccc2n1)C(C)C` [compound 46]: half-maximal inhibition in the data set on HIV-1 (IC50) was put at 40 nM. Further, on HIV-1 protease, the affinity, expressed as Ki, was 0.9 nM; the kinact was 0.00267 s⁻¹; the kinact/KI is 3000 M⁻¹ s⁻¹. The CC50 in data set [1] was over 100000 nM.
